Test results taken from ChEMBL document CHEMBL1201862, “PubChem BioAssay data set” (2004).
The source made the active and inactive calls.

Assays:
[1] = target: Tyrosine-protein phosphatase non-receptor type 7 (Homo sapiens, UniProt P35236); type: functional
[2] = target: Glyceraldehyde-3-phosphate dehydrogenase (Homo sapiens, UniProt P04406)
[3] = target: T1, Dual specificity protein phosphatase 6 (Rattus norvegicus, UniProt Q64346)
T1 sequence (Q64346 whole entry): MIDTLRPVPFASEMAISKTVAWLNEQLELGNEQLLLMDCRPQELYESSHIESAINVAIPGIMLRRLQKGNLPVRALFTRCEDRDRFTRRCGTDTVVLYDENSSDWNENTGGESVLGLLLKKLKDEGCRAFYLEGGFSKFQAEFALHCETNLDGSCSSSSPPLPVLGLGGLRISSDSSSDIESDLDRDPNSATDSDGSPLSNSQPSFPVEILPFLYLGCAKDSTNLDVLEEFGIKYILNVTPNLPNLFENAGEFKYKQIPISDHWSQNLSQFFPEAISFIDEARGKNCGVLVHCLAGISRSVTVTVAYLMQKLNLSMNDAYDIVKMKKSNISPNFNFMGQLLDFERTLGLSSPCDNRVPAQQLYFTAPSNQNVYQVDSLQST

[4] = target: T1, Dual specificity protein phosphatase 6; type: functional
Protein skinhead-1 = target: T2, Protein skinhead-1 (Caenorhabditis elegans, UniProt P34707); type: functional
T2 sequence (P34707 whole entry): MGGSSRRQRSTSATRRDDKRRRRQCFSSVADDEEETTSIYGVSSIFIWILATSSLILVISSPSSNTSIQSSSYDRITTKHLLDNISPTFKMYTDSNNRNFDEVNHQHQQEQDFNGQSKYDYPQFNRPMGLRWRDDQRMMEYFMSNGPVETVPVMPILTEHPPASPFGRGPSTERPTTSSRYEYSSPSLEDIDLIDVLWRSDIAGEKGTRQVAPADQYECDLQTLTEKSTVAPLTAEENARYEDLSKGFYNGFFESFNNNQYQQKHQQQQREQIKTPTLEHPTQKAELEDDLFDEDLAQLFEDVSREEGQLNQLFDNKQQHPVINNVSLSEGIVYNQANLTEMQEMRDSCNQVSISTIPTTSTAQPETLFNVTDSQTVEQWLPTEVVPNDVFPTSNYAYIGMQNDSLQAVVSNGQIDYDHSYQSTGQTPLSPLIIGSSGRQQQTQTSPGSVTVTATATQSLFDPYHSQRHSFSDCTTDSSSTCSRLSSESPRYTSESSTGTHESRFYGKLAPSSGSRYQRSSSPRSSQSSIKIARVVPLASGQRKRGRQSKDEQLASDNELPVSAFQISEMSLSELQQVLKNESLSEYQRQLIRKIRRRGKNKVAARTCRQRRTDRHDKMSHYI

[5] = target: Peroxisome proliferator-activated receptor gamma/Nuclear receptor coactivator 2 (Homo sapiens, UniProt P37231); type: functional;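 further: agonist potency for raising coactivator recruitment to the receptor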
[6] = target: Peroxisome proliferator-activated receptor gamma/Nuclear receptor coactivator 1 (Homo sapiens, UniProt P37231); type: functional;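 further: agonist potency as compounds enhance coactivator SRC-1 recruitment to PPARgamma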
Peroxisome proliferator-activated receptor gamma/Nuclear receptor coactivator 1, sequence (P37231 whole entry): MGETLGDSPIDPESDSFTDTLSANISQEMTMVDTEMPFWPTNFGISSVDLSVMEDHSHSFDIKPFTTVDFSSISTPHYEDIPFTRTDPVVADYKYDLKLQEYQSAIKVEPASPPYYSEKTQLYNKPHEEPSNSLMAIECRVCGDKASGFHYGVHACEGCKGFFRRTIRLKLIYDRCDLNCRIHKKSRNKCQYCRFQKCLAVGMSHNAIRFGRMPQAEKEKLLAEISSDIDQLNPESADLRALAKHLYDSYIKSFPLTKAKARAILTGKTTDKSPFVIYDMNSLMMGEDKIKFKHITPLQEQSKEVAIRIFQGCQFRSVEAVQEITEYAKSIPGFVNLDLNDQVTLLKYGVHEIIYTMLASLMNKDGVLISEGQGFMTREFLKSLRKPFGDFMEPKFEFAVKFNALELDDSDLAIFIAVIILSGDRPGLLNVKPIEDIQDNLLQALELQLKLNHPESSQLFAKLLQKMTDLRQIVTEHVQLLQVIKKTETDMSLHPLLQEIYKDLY
Peroxisome proliferator-activated receptor gamma/Nuclear receptor coactivator 1, sequence (Q15788 whole entry, further chain): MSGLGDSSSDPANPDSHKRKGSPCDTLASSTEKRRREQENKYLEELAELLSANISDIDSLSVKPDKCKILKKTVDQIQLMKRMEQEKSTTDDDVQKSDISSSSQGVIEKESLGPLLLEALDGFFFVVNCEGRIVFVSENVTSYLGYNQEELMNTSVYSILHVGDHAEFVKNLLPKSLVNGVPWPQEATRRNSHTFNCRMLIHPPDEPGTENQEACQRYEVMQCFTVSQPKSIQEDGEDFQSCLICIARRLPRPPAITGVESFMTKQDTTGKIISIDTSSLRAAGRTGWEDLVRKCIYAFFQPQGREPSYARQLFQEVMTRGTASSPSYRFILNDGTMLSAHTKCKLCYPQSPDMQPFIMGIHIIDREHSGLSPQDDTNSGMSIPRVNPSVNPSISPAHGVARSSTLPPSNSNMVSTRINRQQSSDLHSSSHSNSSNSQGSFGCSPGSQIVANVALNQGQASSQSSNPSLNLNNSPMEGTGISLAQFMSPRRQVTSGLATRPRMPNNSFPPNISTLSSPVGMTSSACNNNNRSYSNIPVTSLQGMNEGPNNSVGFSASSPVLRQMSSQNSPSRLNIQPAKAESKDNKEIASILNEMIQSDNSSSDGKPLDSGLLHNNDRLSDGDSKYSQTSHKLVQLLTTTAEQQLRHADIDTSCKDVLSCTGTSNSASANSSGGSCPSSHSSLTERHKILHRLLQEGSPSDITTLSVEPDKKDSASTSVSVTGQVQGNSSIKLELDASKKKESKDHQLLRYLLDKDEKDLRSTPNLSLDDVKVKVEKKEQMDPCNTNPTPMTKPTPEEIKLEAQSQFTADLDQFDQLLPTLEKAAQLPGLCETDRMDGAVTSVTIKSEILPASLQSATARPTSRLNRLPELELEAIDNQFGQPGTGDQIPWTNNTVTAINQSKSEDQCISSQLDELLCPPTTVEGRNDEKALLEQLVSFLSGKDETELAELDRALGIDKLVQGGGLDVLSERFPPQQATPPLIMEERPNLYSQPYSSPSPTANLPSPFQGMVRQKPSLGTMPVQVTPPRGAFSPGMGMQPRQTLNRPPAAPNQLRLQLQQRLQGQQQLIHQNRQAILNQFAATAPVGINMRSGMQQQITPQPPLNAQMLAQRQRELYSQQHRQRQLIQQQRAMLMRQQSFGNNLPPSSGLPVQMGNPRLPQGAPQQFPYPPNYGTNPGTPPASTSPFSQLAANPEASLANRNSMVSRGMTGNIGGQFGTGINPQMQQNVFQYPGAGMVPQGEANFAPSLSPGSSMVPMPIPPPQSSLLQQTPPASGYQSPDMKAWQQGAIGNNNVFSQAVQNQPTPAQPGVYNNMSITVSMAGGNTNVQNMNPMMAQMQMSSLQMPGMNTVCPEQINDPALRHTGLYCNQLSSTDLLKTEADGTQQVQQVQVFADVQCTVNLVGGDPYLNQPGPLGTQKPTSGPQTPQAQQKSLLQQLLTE

[7] = target: Peroxisome proliferator-activated receptor gamma/Nuclear receptor coactivator 3 (Homo sapiens, UniProt P37231); type: functional;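 further: agonist potency for raising coactivator recruitment to the receptor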
Peroxisome proliferator-activated receptor gamma/Nuclear receptor coactivator 3, sequence (P37231 whole entry): as the sequence (P37231 whole entry) above
Peroxisome proliferator-activated receptor gamma/Nuclear receptor coactivator 3, sequence (Q9Y6Q9 whole entry, further chain): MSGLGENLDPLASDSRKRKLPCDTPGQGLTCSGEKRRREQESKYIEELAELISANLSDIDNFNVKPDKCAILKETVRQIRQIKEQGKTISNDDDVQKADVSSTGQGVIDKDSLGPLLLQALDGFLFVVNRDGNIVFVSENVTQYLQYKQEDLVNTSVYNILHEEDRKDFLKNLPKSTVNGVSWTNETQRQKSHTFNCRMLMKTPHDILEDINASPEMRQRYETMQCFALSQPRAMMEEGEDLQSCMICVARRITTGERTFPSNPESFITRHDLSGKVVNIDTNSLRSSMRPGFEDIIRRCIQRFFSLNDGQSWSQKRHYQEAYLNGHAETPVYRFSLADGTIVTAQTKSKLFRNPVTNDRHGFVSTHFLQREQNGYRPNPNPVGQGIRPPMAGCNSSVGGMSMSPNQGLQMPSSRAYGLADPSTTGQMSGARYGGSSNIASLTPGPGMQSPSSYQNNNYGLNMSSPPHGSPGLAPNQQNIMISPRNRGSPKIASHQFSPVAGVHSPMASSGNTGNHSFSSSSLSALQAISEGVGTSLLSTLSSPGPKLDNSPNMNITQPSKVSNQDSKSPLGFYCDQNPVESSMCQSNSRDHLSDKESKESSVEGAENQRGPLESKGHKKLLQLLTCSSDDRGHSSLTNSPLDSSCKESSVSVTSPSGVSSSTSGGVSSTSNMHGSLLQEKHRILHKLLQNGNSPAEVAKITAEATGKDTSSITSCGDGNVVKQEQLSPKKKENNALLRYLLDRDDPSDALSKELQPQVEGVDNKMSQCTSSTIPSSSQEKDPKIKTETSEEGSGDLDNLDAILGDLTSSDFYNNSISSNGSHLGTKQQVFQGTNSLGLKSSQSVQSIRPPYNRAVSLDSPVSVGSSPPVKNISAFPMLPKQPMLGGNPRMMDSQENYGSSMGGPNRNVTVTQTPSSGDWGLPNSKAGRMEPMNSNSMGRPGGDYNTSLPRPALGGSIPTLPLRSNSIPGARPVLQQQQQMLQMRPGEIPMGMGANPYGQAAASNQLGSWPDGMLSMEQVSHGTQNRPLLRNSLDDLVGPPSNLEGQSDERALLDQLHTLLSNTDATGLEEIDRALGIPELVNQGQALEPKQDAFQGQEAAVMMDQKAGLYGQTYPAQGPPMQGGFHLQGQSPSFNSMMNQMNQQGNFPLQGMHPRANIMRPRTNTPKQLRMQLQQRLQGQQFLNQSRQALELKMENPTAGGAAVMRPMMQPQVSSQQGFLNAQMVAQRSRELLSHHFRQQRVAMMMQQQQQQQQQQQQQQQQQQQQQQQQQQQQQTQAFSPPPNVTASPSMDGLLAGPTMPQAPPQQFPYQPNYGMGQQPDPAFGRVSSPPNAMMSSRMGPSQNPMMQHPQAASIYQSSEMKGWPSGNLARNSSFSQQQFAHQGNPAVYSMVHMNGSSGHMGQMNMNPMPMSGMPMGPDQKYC

Estrogen receptor = Estrogen receptor (Homo sapiens, UniProt P03372);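 further: potency for inhibiting coactivator peptide recruitment to the receptor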
Estrogen receptor, sequence (P03372 whole entry): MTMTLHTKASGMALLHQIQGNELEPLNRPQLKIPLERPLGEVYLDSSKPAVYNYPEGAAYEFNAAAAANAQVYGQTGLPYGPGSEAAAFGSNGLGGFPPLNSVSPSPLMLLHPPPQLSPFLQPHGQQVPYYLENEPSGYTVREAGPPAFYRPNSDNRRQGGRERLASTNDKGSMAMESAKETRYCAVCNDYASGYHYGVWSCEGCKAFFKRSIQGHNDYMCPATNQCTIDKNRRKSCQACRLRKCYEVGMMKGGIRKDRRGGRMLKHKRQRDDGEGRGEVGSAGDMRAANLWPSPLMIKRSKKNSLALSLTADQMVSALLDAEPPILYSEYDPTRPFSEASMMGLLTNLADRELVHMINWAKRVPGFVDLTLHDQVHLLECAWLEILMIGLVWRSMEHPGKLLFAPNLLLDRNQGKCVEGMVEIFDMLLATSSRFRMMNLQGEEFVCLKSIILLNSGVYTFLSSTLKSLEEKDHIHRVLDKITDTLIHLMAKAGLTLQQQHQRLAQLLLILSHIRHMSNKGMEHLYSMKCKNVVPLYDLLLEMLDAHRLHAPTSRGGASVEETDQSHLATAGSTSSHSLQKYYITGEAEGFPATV

Leucine aminopeptidase = target: T3, Leucine aminopeptidase (Plasmodium falciparum 3D7, UniProt Q8IL11); experiment: P. falciparum M17LAP inhibitors, primary screen, biochemical, fluorogenic H-Leu-NHMec substrate, 1536-well (AID 1619); type: functional
T3 sequence (Q8IL11 whole entry): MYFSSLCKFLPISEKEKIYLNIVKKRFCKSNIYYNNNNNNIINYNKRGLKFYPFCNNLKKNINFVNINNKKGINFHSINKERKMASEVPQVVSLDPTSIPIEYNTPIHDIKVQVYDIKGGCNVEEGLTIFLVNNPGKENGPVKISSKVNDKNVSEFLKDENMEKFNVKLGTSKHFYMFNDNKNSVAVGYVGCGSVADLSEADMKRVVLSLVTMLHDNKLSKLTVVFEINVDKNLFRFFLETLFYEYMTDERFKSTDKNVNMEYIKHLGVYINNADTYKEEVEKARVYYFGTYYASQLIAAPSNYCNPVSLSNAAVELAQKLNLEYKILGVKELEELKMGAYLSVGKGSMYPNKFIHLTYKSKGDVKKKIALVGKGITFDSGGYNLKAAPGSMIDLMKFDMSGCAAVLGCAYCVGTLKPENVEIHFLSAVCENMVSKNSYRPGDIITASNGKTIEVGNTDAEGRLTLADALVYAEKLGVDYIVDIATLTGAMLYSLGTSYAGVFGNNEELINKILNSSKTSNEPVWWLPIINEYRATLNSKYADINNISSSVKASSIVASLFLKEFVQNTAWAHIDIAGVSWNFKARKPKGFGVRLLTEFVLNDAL

Aspartyl aminopeptidase = target: T4, Aspartyl aminopeptidase (Plasmodium falciparum 3D7, UniProt Q8I2J3); experiment: Counterscreen for inhibitors of M1 and M17 aminopeptidases: QFRET-based biochemical high throughput dose response assay for inhibitors of the Plasmodium falciparum M18 Aspartyl Aminopeptidase (PFM18AAP). [Related PubChem assays: 1619 (Screening assay (M17LAP inhibitors).), 1445 (Screening assay (M1AAP inhibitors).)]
T4 sequence (Q8I2J3 whole entry): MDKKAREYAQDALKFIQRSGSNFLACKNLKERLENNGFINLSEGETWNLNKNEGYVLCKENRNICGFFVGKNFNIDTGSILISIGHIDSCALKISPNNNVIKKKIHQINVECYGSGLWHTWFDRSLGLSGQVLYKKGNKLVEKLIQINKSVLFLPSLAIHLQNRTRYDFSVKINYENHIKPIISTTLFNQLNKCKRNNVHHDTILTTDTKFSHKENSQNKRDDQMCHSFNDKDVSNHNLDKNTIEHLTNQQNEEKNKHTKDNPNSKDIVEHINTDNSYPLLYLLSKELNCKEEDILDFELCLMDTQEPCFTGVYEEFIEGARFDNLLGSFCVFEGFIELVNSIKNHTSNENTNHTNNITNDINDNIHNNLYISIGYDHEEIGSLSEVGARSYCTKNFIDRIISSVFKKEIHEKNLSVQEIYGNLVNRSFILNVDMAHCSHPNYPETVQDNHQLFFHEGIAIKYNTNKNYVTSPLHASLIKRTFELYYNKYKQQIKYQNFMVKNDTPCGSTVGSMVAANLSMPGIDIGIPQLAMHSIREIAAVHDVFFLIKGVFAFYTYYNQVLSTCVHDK

Procathepsin L = Procathepsin L (Homo sapiens, UniProt P07711); experiment: CTSL1 protease inhibition – biochemical, QFRET, 1536-well, counter-screen for M1/M17 aminopeptidase inhibitor project, dose response (AID 2214)
[8] = target: T5, Replicative DNA helicase DnaB (Mycobacterium tuberculosis, UniProt P9WMR3); experiment: DnaB intein splicing inhibitors, dose response, biochemical, cell-free fluorescence (AID 449749); type: functional
T5 sequence (P9WMR3 whole entry): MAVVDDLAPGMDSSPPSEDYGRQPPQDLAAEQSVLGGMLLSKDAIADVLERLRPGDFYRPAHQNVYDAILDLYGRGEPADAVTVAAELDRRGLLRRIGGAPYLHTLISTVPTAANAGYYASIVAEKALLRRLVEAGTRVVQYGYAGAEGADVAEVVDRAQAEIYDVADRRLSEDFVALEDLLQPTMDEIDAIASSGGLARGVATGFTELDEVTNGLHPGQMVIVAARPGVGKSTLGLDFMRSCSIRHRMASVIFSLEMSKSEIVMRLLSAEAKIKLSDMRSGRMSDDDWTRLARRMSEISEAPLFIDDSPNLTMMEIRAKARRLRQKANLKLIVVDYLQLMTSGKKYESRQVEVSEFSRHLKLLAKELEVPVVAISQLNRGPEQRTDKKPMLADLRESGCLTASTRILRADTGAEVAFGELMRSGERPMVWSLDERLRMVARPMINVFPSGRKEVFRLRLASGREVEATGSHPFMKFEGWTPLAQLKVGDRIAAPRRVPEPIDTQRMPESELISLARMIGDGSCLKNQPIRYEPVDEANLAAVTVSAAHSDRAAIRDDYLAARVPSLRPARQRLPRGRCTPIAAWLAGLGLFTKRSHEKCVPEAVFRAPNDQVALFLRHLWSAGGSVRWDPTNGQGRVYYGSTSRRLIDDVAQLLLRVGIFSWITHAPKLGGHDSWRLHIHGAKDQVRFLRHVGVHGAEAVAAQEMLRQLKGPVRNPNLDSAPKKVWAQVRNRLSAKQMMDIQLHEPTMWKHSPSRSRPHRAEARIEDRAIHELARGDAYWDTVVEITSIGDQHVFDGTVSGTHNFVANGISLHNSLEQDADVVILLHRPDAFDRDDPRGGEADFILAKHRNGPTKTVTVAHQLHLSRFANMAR

Protein RecA = target: T6, Protein RecA (Mycobacterium tuberculosis, UniProt P9WHJ3); experiment: Fluorescence Cell-Free Homogeneous Dose Retest to Identify Inhibitors of RecA-Intein Splicing Activity. [Related pubchem assays (depositor defined):AID2097, AID2223, AID489010, AID492950]; type: functional
T6 sequence (P9WHJ3 whole entry): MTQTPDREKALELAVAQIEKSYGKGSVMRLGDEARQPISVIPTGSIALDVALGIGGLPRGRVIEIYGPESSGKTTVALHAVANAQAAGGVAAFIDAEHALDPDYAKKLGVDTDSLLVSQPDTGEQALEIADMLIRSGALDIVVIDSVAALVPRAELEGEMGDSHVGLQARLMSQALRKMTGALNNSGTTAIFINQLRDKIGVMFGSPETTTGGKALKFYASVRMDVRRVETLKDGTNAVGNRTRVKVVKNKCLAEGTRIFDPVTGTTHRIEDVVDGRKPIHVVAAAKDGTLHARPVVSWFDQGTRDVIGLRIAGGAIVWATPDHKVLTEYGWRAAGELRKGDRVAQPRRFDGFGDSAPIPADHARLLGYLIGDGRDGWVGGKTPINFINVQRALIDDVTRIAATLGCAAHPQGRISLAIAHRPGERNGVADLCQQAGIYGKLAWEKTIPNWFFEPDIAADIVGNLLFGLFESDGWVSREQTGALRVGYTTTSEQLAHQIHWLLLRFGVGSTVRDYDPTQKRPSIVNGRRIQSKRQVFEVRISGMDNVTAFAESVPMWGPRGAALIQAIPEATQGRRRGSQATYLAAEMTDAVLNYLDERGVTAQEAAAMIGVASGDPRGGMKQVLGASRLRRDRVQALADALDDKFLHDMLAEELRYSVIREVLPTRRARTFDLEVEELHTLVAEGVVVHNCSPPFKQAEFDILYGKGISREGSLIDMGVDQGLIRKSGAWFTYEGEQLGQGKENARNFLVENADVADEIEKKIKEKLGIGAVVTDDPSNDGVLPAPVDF

[9] = target: T7, Sentrin-specific protease 8 (Homo sapiens, UniProt Q96LD8); type: functional
T7 sequence (Q96LD8 whole entry): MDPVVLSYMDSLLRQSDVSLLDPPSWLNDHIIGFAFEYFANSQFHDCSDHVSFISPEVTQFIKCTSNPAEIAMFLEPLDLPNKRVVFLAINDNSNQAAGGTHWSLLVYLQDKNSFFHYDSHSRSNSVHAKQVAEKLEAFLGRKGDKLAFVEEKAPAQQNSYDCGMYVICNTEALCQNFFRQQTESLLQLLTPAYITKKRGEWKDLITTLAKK

[10] = target: T7, Sentrin-specific protease 8; type: functional; remark: listed apart in the source
[11] = target: DNA dC->dU-editing enzyme APOBEC-3A (Homo sapiens, UniProt P31941); experiment: A3A deaminase inhibition for selectivity – biochemical, dose response (AID 504722); type: functional
DNA dC->dU-editing enzyme APOBEC-3A, sequence (P31941 whole entry): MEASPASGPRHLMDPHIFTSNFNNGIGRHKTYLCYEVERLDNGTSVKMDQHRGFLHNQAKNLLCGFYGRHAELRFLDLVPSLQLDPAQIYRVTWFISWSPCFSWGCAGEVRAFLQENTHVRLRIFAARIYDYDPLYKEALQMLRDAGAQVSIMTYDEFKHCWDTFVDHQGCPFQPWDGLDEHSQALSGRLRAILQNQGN

[12] = target: DNA dC->dU-editing enzyme APOBEC-3G (Homo sapiens, UniProt Q9HC16); experiment: Dose Response confirmation of small molecule APOBEC3G DNA Deaminase Inhibitors via a fluorescence-based single-stranded DNA deaminase assay. [Related pubchem assays (depositor defined):AID493012, AID493028]; type: functional

Tyrosine-protein phosphatase non-receptor type 7, sequence (P35236 whole entry): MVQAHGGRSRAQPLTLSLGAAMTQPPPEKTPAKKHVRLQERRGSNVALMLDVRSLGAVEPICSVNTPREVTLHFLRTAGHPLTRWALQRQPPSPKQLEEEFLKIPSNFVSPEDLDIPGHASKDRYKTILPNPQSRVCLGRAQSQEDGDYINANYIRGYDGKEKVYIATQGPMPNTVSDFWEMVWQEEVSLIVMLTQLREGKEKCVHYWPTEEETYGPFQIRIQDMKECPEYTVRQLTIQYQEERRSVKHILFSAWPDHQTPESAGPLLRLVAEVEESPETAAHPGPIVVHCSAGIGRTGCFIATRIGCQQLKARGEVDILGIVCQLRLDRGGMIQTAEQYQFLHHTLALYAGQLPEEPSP

`Cc1cc(NC(=O)CCc2ccc(C)o2)no1` was tested. Which IC50 [1] did it give?
Its IC50 is > 100 µM (not active).

What about the IC50 [2] of the same molecule?
The IC50 was > 100 µM (not active).

What about the IC50 [3] of the same molecule?
Its IC50 is > 100 µM (inactive).

And the IC50 [4]?
Its IC50 is > 100 µM (inactive).

And the IC50 (Protein skinhead-1)?
The IC50 was > 100 µM (inactive).

How did the EC50 [5] turn out when `CCOC(=O)C1=C(C)N=C(SCC(=O)O)NC1c1ccccc1` (stereo unspecified) was run?
The EC50 was > 79.4 µM (not active).

And the EC50 [6]?
The EC50 was > 79.4 µM (not active).

What about the EC50 [7] of the same molecule?
Its EC50 is > 79.4 µM (not active).

`O=C(Nc1cnc2ccccc2c1)c1ccco1` was tested. Which IC50 (Estrogen receptor) did it give?
Its IC50 is > 50 µM (not active).

Which results are given for `O=c1cc(-c2ccc(Cl)cc2)[nH][nH]1`?
IC50 (Leucine aminopeptidase): < 1 µM (active); IC50 (Aspartyl aminopeptidase): > 73.5 µM (not active); IC50 (Procathepsin L): > 59.6 µM (not active); AC50 [8]: 2.33 µM (active); EC50 (Protein RecA): 0.527 µM (active); IC50 [9]: 57 µM (active); IC50 [10]: 67.7 µM (inactive)

For `COc1ccc(-c2cc(C(F)(F)F)n3ncc(C(=O)NCc4ccco4)c3n2)cc1`, which IC50 (Estrogen receptor) is on record?
The IC50 was > 50 µM (not active).

What does the source list for `O=C(O)[C@H](O)c1ccccc1`?
IC50 [1]: > 100 µM (not active); IC50 [2]: > 100 µM (not active); IC50 [3]: > 100 µM (inactive); IC50 [4]: > 100 µM (inactive)

How did the EC50 [5] turn out when `Sc1nc2cc(Cl)ccc2[nH]1` was run?
The EC50 was > 79.4 µM (not active).

And the EC50 [6]?
Its EC50 is > 79.4 µM (not active).

What about the EC50 [7] of the same molecule?
The EC50 was > 79.4 µM (not active).

What about the IC50 [11] of the same molecule?
Its IC50 is > 100 µM (inactive).

And the IC50 [12]?
The IC50 was 5.27 µM (active).
